Data: patent US7514254B2, “Plant-derived alkaline alpha-galactosidase” (The State of Israel, Ministry of Agriculture & Rural …, priority 1998, dated 2009)

Key:
[1] = molecular target: T1, melon (Cucumis melo) fruit alkaline alpha-galactosidase Form I (Cucumis melo, UniProt Q84NI7); assay: Substrate kinetics (Lineweaver-Burk) of alkaline alpha-galactosidase Form I; details: for Vmax: Lineweaver-Burk
T1 sequence (Q84NI7 1-754): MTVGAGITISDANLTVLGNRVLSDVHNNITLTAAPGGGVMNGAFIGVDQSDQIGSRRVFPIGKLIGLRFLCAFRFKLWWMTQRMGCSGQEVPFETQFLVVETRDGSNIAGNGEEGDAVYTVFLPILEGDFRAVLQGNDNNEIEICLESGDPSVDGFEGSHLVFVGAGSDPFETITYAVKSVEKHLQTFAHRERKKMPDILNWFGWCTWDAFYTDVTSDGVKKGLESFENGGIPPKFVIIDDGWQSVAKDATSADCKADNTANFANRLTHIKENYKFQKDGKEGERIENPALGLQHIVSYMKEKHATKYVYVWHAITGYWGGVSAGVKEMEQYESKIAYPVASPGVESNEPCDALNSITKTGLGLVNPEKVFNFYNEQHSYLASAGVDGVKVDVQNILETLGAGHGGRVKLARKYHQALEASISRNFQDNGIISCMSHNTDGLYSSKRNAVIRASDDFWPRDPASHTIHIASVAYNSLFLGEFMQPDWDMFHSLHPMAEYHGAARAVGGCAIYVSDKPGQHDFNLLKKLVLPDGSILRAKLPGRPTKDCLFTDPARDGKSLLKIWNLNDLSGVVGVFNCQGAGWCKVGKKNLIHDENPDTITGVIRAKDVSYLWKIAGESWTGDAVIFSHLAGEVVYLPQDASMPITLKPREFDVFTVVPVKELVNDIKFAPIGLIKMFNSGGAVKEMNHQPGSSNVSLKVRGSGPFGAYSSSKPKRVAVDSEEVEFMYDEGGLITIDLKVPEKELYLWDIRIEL
Protocol: (§1) For routine analysis and monitoring the activity in the purification steps, alpha-galactosidase was assayed as described by Smart and Pharr (“Characterization of alpha-galactosidase from cucumber leaves”, Plant Physiology, 66:731-734, 1980), using p-nitrophenyl alpha-galactoside (pNPG) as substrate. Reaction was initiated by adding 50 μl enzyme aliquot to either 200 μl 100 mM pH 5.5 McIlvaine buffer or 100 mM pH 7.5 HEPES buffer, containing 5 mM pNPG at 35 C. The reaction was terminated after 10 min by adding 1 ml of 5% (w/v) Na2CO3 and activity expressed as nmol nitrophenol per min as measured at 410 nm. […] The assay was started by adding 50 μl enzyme preparation at 35 C and terminated after 10 to 20 min by 2 min boiling.
(§2) The fractions from the DEAE-Sepharose chromatography which were active at pH 7.5 were pooled and dialyzed against buffer A for 12 h prior to loading onto an HPLC ion exchange chromatography column (Mono-Q HR 5/5, Pharmacia, Uppsala, Sweden), previously equilibrated with buffer A. Bound proteins were eluted with a linear gradient of 0.1 to 0.45 M NaCl and the active fractions were detected using pNPG as substrate at pH 7.5 as described above. […] For the further purification of Form II the active fractions of the peak II were chromatographed on hydrophobic interaction chromatography. The fractions were pooled, brought to 1 M (NH4)2SO4 and loaded on to a hydrophobic interaction column (phenyl-Sepharose CL-4B, 0.5×12 cm, Pharmacia, Uppsala, Sweden) previously equilibrated with buffer A containing 1 M (NH4)2SO4. The protein was eluted with a reverse stepwise gradient from 1 to 0 M (NH4)2SO4 with 50 mM intervals in buffer A. Fractions containing the activity peak were collected and dialyzed for 12 h against buffer A and the dialysate was concentrated by reverse dialysis against solid sucrose. The enzyme, partially purified by hydrophobic interaction chromatography, was used for the characterization of Form II. The active fractions from the hydrophobic interaction column were further purified. Active fractions were separated electrophoretically using a Mini Prep Cell (Bio-Rad Laboratories, Hercules, Calif.) for discontinuous native-PAGE with 7% polyacrylamide, according to manufacturer's instructions. Fractions (0.25 ml/fraction) were assayed at pH 7.5 with pNPG as substrate for the activity. The active fractions were pooled, concentrated by Vivaspin Concentrator (Vivascience LTD, Lincoln, England), and run in a 8% SDS-PAGE. Proteins in the SDS-PAGE were identified using Coomassie Blue staining.
Therefore, the active fractions from the Mono-Q column were used for the characterization of Form I. In addition, the Form I enzyme was further purified, as described in the following section.

[2] = molecular target: T2, melon (Cucumis melo) fruit alkaline alpha-galactosidase Form II (Cucumis melo, UniProt Q84NI6); assay: Substrate kinetics (Lineweaver-Burk) of alkaline alpha-galactosidase Form II; format: biochemical, muskmelon (Cucumis melo L. cv C-8); details: for Vmax: Lineweaver-Burk
T2 construct: native 102 kDa, denatured 92 kDa; assayed at pH 7.5
T2 sequence (Q84NI6 1-772): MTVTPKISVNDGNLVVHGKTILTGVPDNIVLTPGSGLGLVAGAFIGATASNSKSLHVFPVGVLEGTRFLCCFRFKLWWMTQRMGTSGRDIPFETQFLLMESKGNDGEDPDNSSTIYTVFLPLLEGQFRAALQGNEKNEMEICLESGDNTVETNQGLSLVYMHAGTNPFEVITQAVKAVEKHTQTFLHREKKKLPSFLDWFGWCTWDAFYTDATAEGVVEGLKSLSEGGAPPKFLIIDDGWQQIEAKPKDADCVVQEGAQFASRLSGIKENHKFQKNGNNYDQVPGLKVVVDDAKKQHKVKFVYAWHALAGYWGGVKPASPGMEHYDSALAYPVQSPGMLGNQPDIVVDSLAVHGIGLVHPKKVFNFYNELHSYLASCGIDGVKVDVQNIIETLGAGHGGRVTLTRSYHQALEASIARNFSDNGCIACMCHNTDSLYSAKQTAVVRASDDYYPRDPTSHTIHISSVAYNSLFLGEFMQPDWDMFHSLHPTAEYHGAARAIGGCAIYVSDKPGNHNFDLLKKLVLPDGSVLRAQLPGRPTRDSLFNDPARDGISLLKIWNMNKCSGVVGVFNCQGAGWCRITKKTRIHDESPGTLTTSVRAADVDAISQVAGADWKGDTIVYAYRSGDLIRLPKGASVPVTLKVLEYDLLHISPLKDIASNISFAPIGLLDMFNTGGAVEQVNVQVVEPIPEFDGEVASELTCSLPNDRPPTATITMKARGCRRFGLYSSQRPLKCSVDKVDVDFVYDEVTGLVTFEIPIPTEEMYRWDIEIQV
Protocol: as §1, §2

[3] = test system: melon (Cucumis melo) fruit acid form alpha-galactosidase; assay: Substrate kinetics (Lineweaver-Burk) of acid alpha-galactosidase; format: biochemical, muskmelon (Cucumis melo L. cv C-8); details: for Km / Vmax: Lineweaver-Burk
Protocol: For routine analysis and monitoring the activity in the purification steps, alpha-galactosidase was assayed as described by Smart and Pharr (“Characterization of alpha-galactosidase from cucumber leaves”, Plant Physiology, 66:731-734, 1980), using p-nitrophenyl alpha-galactoside (pNPG) as substrate. […] The reaction was terminated after 10 min by adding 1 ml of 5% (w/v) Na2CO3 and activity expressed as nmol nitrophenol per min as measured at 410 nm. […] The assay was started by adding 50 μl enzyme preparation at 35 C and terminated after 10 to 20 min by 2 min boiling. […] For the partial purification of the acid form of alpha-galactosidase the fractions active at pH 5.5 were pooled and concentrated by reverse dialysis against solid sucrose. […] The active fractions were then desalted by dialysis against buffer A for 12 hours with two changes of the buffer. This enzyme fraction was used for the characterization of the acidic form of alpha-galactosidase. […] The substrate specificity of the alpha-galactosidases was tested with pNPG, stachyose, raffinose, melibiose or guar gum (Sigma).

[4] = test system: Escherichia coli K12 alpha-galactosidase; details: Schmid and Schmitt 1976; cited from earlier work
[5] = test system: Pseudomonas fluorescens H-601 alpha-galactosidase; details: Hashimoto et al. 1991; relative Km values; cited from earlier work
[6] = substrate: O=[N+]([O-])c1ccc(O[C@H]2O[C@H](CO)[C@H](O)[C@H](O)[C@H]2O)cc1; assay: purified protein, by the assay type; details: other: alkaline Form I; Lineweaver-Burk; 35.0 °C
[7] = substrate: OC[C@H]1O[C@H](OC[C@H]2O[C@H](O[C@]3(CO)O[C@H](CO)[C@@H](O)[C@@H]3O)[C@H](O)[C@@H](O)[C@@H]2O)[C@H](O)[C@@H](O)[C@H]1O; assay: purified protein, by the assay type; details: other: alkaline Form I; Lineweaver-Burk; 35.0 °C
[8] = substrate: OC[C@H]1O[C@H](OC[C@H]2O[C@H](OC[C@H]3O[C@H](O[C@]4(CO)O[C@H](CO)[C@@H](O)[C@@H]4O)[C@H](O)[C@@H](O)[C@@H]3O)[C@H](O)[C@@H](O)[C@H]2O)[C@H](O)[C@@H](O)[C@H]1O; assay: purified protein, by the assay type; details: other: alkaline Form I; Lineweaver-Burk; 35.0 °C
[9] = substrate: OC[C@H]1O[C@H](OC[C@H]2OC(O)[C@H](O)[C@@H](O)[C@@H]2O)[C@H](O)[C@@H](O)[C@H]1O; assay: purified protein, by the assay type; details: other: alkaline Form I; Lineweaver-Burk; 35.0 °C
[10] = raffinose versus melibiose; literature; cited from earlier work

In the case of `O=[N+]([O-])c1ccc(O[C@H]2O[C@H](CO)[C@H](O)[C@H](O)[C@H]2O)cc1` [pNPG, p-nitrophenyl alpha-galactopyranoside], the Vmax/Km ratio [1] is reported as 1.17, the Vmax [1] is reported as 1.4 μmol mg^−1 protein min^−1 and the Vmax/Km ratio [2] is reported as 2.63. The Vmax [2] was 7.9 μmol mg^−1 protein min^−1, the Vmax/Km ratio [3] was 5.00 and the Km [3] was 300 µM. The Vmax [3] was 1.5 μmol mg^−1 protein min^−1 and the “pNPG concentration above which enzyme is inhibited (substrate inhibition)” value ([3]; pNPG as substrate) was “above 5 mM”.

In the case of `OC[C@H]1O[C@H](OC[C@H]2OC(O)[C@H](O)[C@@H](O)[C@@H]2O)[C@H](O)[C@@H](O)[C@H]1O` (stereo partly drawn) [Melibiose, 6-O-alpha-D-galactopyranosyl-D-glucose], the Km [4] is listed as 3200 µM, the Vmax [1] is listed as 0.3 μmol mg^−1 protein min^−1 and the Vmax [2] is listed as 0.23 μmol mg^−1 protein min^−1. For the same molecule, the Km [5] was 3200 µM, the Vmax/Km ratio [3] was 0.27 and the Km [3] was 700 µM. For the same molecule, the Vmax [3] was 0.19 μmol mg^−1 protein min^−1.

B1: melon (Cucumis melo) fruit alkaline alpha-galactosidase Form I (Cucumis melo) (protein)
chain: MTVGAGITISDANLTVLGNRVLSDVHNNITLTAAPGGGVMNGAFIGVDQSDQIGSRRVFPIGKLIGLRFLCAFRFKLWWMTQRMGCSGQEVPFETQFLVVETRDGSNIAGNGEEGDAVYTVFLPILEGDFRAVLQGNDNNEIEICLESGDPSVDGFEGSHLVFVGAGSDPFETITYAVKSVEKHLQTFAHRERKKMPDILNWFGWCTWDAFYTDVTSDGVKKGLESFENGGIPPKFVIIDDGWQSVAKDATSADCKADNTANFANRLTHIKENYKFQKDGKEGERIENPALGLQHIVSYMKEKHATKYVYVWHAITGYWGGVSAGVKEMEQYESKIAYPVASPGVESNEPCDALNSITKTGLGLVNPEKVFNFYNEQHSYLASAGVDGVKVDVQNILETLGAGHGGRVKLARKYHQALEASISRNFQDNGIISCMSHNTDGLYSSKRNAVIRASDDFWPRDPASHTIHIASVAYNSLFLGEFMQPDWDMFHSLHPMAEYHGAARAVGGCAIYVSDKPGQHDFNLLKKLVLPDGSILRAKLPGRPTKDCLFTDPARDGKSLLKIWNLNDLSGVVGVFNCQGAGWCKVGKKNLIHDENPDTITGVIRAKDVSYLWKIAGESWTGDAVIFSHLAGEVVYLPQDASMPITLKPREFDVFTVVPVKELVNDIKFAPIGLIKMFNSGGAVKEMNHQPGSSNVSLKVRGSGPFGAYSSSKPKRVAVDSEEVEFMYDEGGLITIDLKVPEKELYLWDIRIEL
Work on B1 yielded a Km [6] of 1200 µM, a Km [7] of 1500 µM and a Vmax [7] of 0.56 µmol/min. It also gave a Km [8] of 4000 µM, a Vmax [8] of 0.24 µmol/min and a Km [9] of 20000 µM. The Vmax [9] was 0.3 µmol/min.

B2: alpha-galactosidase from Escherichia coli K12: alpha-galactosidase of Schmid and Schmitt, tetrameric protein (protein, UniProt P06720 1-451, looked up)
Alpha-galactosidase: MMSAPKITFIGAGSTIFVKNILGDVFHREALKTAHIALMDIDPTRLEESHIVVRKLMDSAGASGKITCHTQQKEALEDADFVVVAFQIGGYEPCTVTDFEVCKRHGLEQTIADTLGPGGIMRALRTIPHLWQICEDMTEVCPDATMLNYVNPMAMNTWAMYARYPHIKQVGLCHSVQGTAEELARDLNIDPATLRYRCAGINHMAFYLELERKTADGSYVNLYPELLAAYEAGQAPKPNIHGNTRCQNIVRYEMFKKLGYFVTESSEHFAEYTPWFIKPGREDLIERYKVPLDEYPKRCVEQLANWHKELEEYKKASRIDIKPSREYASTIMNAIWTGEPSVIYGNVRNDGLIDNLPQGCCVEVACLVDANGIQPTKVGTLPSHLAALMQTNINVQTLLTEAILTENRDRVYHAAMMDPHTAAVLGIDEIYALVDDLIAAHGDWLPGWLHR
In the case of B2, the “activity with raffinose as compared to melibiose” value [10] is listed as “about 4%”.
